For data set [1], the system named is C. albicans (ATCC CRM 10231). It counts as cell-based, Candida albicans. How it is done:
(§1) The method of antimicrobial assay is based on the Methods for Dilution Antimicrobial Susceptibility Tests for Bacteria that Grow Aerobically from the Clinical and Laboratory Standards Institute (CLSI).The antimicrobial activities of peptides were evaluated against Gram-positive bacteria S. aureus (ATCC 6538), MRSA (NCTC 12493), E. faecalis (NCTC 12493), Gram-negative bacteria E. coli (ATCC CRM 8739), K. pneumoniae (ATCC 43816), P. aeruginosa (ATCC CRM 9027), yeast C. albicans (ATCC CRM 10231) and clinical isolates MRSA (B042 V2E1 A), E. coli (ATCC BAA-2340), K. pneumoniae (ATCC BAA-1705), P. aeruginosa (B004 V2S2 B).
(§2) At the first stage of the assay, 20 μL bacteria were cultured in 100 mL Mueller Hinton Broth (MHB) or Yeast Extract–Peptone–Dextrose broth (YPD-B), respectively, and was incubated overnight. Then, microorganisms were subcultured in 20 mL fresh MHB or YPD-B to achieve cultures in the logarithmic phase (1 × 10^8 CFU/mL), which can be verified by optical density (OD) (The OD of Gram-positive bacteria is 0.23, OD of Gram-negative bacteria is 0.4, and OD of yeast is 0.15), and viable cell counts. Then, the medium was used to dilute the cultures to specific cell densities (Gram-negative and Gram-positive bacteria: 5 × 10^5 CFU/mL; yeast: 1 × 10^6 CFU/mL), which were the final concentrations of bacterial suspensions used in the assay. The peptides were dissolved in DMSO to reach a final concentration of 512 µM. A series of two-fold dilutions ranging from 512 µM to 1 µM were dosed in the 96-well plates.
(§3) Antimicrobial assays were conducted in 96-well plates, which were divided into five groups, including a negative control group (PBS), a positive control group (20 μg/mL norfloxacin for bacteria and 10 μg/mL amphotericin B for yeast), vehicle control (1% DMSO), blank control (MHB or YPD-B), and a peptide group. Each microorganism had five repetitions, and each well contained 1 µL corresponding solution and 99 µL culture. After incubation at 37 °C overnight, the absorbance of each well was tested by a microplate reader (EL808, Biolise BioTek Winooski, Minneapolis, USA) under a 550 nm wavelength. The MIC is the lowest concentration at which no bacterial growth can be observed.
(§4) The next day, 10 µL of every clear well was taken out to be cultured on a Mueller Hinton Agar (MHA) plate and incubated at 37 °C for 16–20 h. The MBC is the lowest concentration without any bacterial colonies, which means at this concentration, the peptide reduces the viability of the pathogen by more than 99.9%.

The subject of data set [2] is P. aeruginosa (ATCC CRM 9027) biofilm. It counts as cell-based, Pseudomonas aeruginosa. As to conditions: ATCC CRM 9027, 24 h. How it is done:
(§5) The anti-biofilm activities of the peptides against S. aureus (ATCC 6538), MRSA (NCTC 12493), E. faecalis (NCTC 12493), E. coli (ATCC CRM 8739), K. pneumoniae (ATCC 43816), and P. aeruginosa (ATCC CRM 9027) were evaluated.
(§6) The bacteria were inoculated in a different medium (Gram-positive bacteria were in TSB and Gram-negative bacteria were in LB) overnight, and the subculture was conducted in the same medium. When the bacteria reached a specific density, 100 µL of the dilution was added to each well of the 96-well microplate. Then 1 µL of peptide at a series of concentrations, the same concentration in the antimicrobial assay, were added into the well together with the bacteria. The plates were put into a moist shaking incubator with a speed of 200 rpm, and the temperature was set at 37 ℃. After a 24-h incubation, the liquid in the wells was aspirated, and each was washed twice by 100 µL PBS. One hundred µL of methanol were added into each well to stabilise the biofilm. After air-drying, 100 µL crystal violet was used to dye the biofilm, and they were dissolved in the 100 µL glacial acidic acid after drying. The solutions were transferred to a new microplate, and the absorbance of each well was tested by a microplate reader (EL808, Biolise BioTek Winooski, Minneapolis, MN, USA) at 595 nm wavelength. MBIC was the minimum concentration of the peptide showing no biofilm formation.
(§7) The bacteria were inoculated in a different medium (Gram-positive bacteria were in TSB and Gram-negative bacteria were in LB) overnight, and the subculture was conducted in the same medium. When the bacteria reached a specific density, 100 µL of the dilution was added to each well of the 96-well microplates. The plates were put into a moist shaking incubator with a speed of 200 rpm and the temperature was 37 ℃. After a 24 h incubation, the liquid in the wells was aspirated and they were washed twice by 100 µL PBS of each well. The peptides with the same concentrations were diluted in the corresponding medium and 100 µL were added into each well. After a 24-h incubation, the liquid in the wells was aspirated and they were washed twice by 100 µL PBS. One hundred µL of methanol were added into the wells to stabilise the biofilms. After being air-dried, 100 µL crystal violet was used to dye the biofilm, and they were dissolved in the 100 µL glacial acidic acid after drying. The solutions were transferred to a new microplate, and the absorbance of each well was tested by a microplate reader (EL808, Biolise BioTek Winooski, Minneapolis, USA) at 595 nm wavelength.

For a further data set, the system named is E. faecalis (NCTC 12493). It counts as cell-based, Enterococcus faecalis. How it is done: as §1, §2, §3, §4
The subject of data set [3] is S. aureus (ATCC 6538) biofilm. It counts as cell-based, Staphylococcus aureus. As to conditions: ATCC 6538, 24 h. How it is done: as §5, §6, §7
In data set [4] the test system is MRSA (NCTC 12493) biofilm. It counts as cell-based, Methicillin-resistant Staphylococcus aureus. The conditions noted are these: NCTC 12493, 24 h. How it is done:
as §5, §6
The bacteria were inoculated in a different medium (Gram-positive bacteria were in TSB and Gram-negative bacteria were in LB) overnight, and the subculture was conducted in the same medium. When the bacteria reached a specific density, 100 µL of the dilution was added to each well of the 96-well microplates. The plates were put into a moist shaking incubator with a speed of 200 rpm and the temperature was 37 ℃. […] The solutions were transferred to a new microplate, and the absorbance of each well was tested by a microplate reader (EL808, Biolise BioTek Winooski, Minneapolis, USA) at 595 nm wavelength.

Data set [5] concerns E. faecalis (NCTC 12493) biofilm. The format is cell-based, Enterococcus faecalis. As to conditions: NCTC 12493, 24 h. How it is done:
as §5, §6, §7

The subject of data set [6] is wax moth (Galleria mellonella). The data set can be described thus: Toxicity of peptides to waxworms. It counts as in vivo. As to conditions: uninfected waxworms, when the concentration reached 15 mg/kg.
The test system of the next data set is MRSA (B042 V2E1 A). The format is cell-based, Methicillin-resistant Staphylococcus aureus. The protocol: as §1, §2, §3, §4
A further data set deals with MRSA (NCTC 12493). It counts as cell-based, Methicillin-resistant Staphylococcus aureus. The protocol:
as §1, §2, §3, §4

For data set [7], the system named is K. pneumoniae (ATCC 43816) biofilm. It counts as cell-based, Klebsiella pneumoniae. The conditions noted are these: ATCC 43816, 24 h. How it is done: as §5, §6, §7
The subject of the next data set is E. coli (ATCC BAA-2340). The format is cell-based, Escherichia coli. How it is done:
as §1, §2, §3, §4

The next data set has as its system E. coli (ATCC CRM 8739). The format is cell-based, Escherichia coli. The protocol: as §1, §2, §3, §4
Data set [8] has as its system E. coli (ATCC CRM 8739) biofilm. The format is cell-based, Escherichia coli. The conditions noted are these: ATCC CRM 8739, 24 h. The protocol:
as §5, §6, §7

A further data set deals with S. aureus (ATCC 6538). It counts as cell-based, Staphylococcus aureus. The protocol: as §1, §2, §3, §4
The test system of data set [9] is K. pneumoniae (ATCC 43816). It counts as cell-based, Klebsiella pneumoniae. How it is done: as §1, §2, §3, §4
For data set [10], the system named is K. pneumoniae (ATCC BAA-1705). The format is cell-based, Klebsiella pneumoniae. How it is done:
as §1, §2, §3, §4

For data set [11], the system named is P. aeruginosa (B004 V2S2 B). The format is cell-based, Pseudomonas aeruginosa. The protocol:
as §1, §2, §3, §4

The subject of data set [12] is P. aeruginosa (ATCC CRM 9027). It counts as cell-based, Pseudomonas aeruginosa. How it is done: as §1, §2, §3, §4
The test system of data set [13] is enteroaggregative E. coli. As to conditions: cited from earlier work. The text has this: Due to the influence of physiological factors, there may be some difference between the antimicrobial activity in vitro and in vivo [41]. Consistent with the haemolysis assay and cytotoxicity assay results, Brevinin-2GUb is much harmful to the wax moth than tB2U-K and tB2U-6K. […] In our study, with the increase of the number of net charges, the survival rate of E. coli-infected wax moth is enhanced and the ability o ...

In brackets after ≈: the same amount, converted by molar mass. Where a SMILES comes first, the peptide text is derived from it. Where no end group is shown, it is not given here.

In the case of `CC[C@H](C)[C@H](NC(=O)[C@@H](NC(=O)CN)C(C)C)C(=O)N[C@H](C(=O)N[C@@H](CC(=O)O)C(=O)N[C@H](C(=O)N[C@@H](CC(C)C)C(=O)N[C@@H](CCCCN)C(=O)NCC(=O)N[C@@H](C)C(=O)N[C@@H](C)C(=O)N[C@@H](CCCCN)C(=O)N[C@H](C(=O)N[C@H](C(=O)N[C@@H](C)C(=O)N[C@@H](C)C(=O)N[C@@H](CCC(=O)O)C(=O)N[C@@H](CC(C)C)C(=O)N[C@@H](CC(C)C)C(=O)N[C@@H](CCCNC(=N)N)C(=O)N[C@@H](CCCCN)C(=O)N[C@@H](C)C(=O)N[C@@H](Cc1c[nH]cn1)C(=O)N[C@H]1CSSC[C@@H](C(=O)O)NC(=O)[C@H](CO)NC(=O)[C@H](CC(N)=O)NC(=O)[C@H]([C@@H](C)O)NC(=O)[C@H](CC(C)C)NC(=O)[C@H](CCCCN)NC1=O)C(C)C)[C@@H](C)O)[C@@H](C)O)[C@@H](C)CC` [Brevinin-2GUb] (HELM PEPTIDE1{G.V.I.I.D.T.L.K.G.A.A.K.T.V.A.A.E.L.L.R.K.A.H.C.K.L.T.N.S.C}$PEPTIDE1,PEPTIDE1,24:R3-30:R3$$$V2.0), the MBC in data set [1] is greater than 512 µM; against E. faecalis (NCTC 12493), greater than 512 µM; with MRSA (B042 V2E1 A) it was greater than 512 µM; against MRSA (NCTC 12493) it was greater than 512 µM; in the data set with E. coli (ATCC BAA-2340) it was 32 µM (≈ 100 µg/mL); with E. coli (ATCC CRM 8739), 16 µM (≈ 50 µg/mL). In addition, the MBC with S. aureus (ATCC 6538) was 32 µM (≈ 100 µg/mL); in data set [9] it was 128 µM (≈ 400 µg/mL); in [10], 512 µM (≈ 1600 µg/mL); in data set [11], greater than 512 µM; in data set [12] it was 512 µM (≈ 1600 µg/mL). The MIC was greater than 512 µM in data set [1]; greater than 512 µM in the data set on E. faecalis (NCTC 12493); greater than 512 µM with MRSA (B042 V2E1 A); greater than 512 µM in the data set on MRSA (NCTC 12493); 32 µM (≈ 100 µg/mL) against E. coli (ATCC BAA-2340); 16 µM (≈ 50 µg/mL) in the data set on E. coli (ATCC CRM 8739). Moreover, the MIC against S. aureus (ATCC 6538) is 32 µM (≈ 100 µg/mL); in [9], 128 µM (≈ 400 µg/mL); in data set [10] it was 512 µM (≈ 1600 µg/mL); in [11], greater than 512 µM; in [12], 128 µM (≈ 400 µg/mL). Further, the MBEC in data set [2], in data set [3], in data set [5], in data set [7] and in data set [8] was greater than 512 µM in each case. Besides, the MBIC in [2] is greater than 512 µM; in [3], 256 µM; in [4], 256 µM; in [5], greater than 512 µM; in data set [7], greater than 512 µM; in data set [8], 128 µM. In addition, in data set [6], the toxicity to waxworms entry was “modest toxicity”.

For the molecule “Indolicidin (ILPWKWPWWPWRR; ends and bridges not checked; UniProt P33046 131-143, looked up) [antimicrobial peptide of a previous study in Galleria mellonella]”, the “survival rate of Galleria mellonella infected by the enteroaggregative E. coli” value in [13] was “up to 95%”.

As a reminder, the MIC is the lowest concentration found to suppress growth. High values mean a less susceptible organism, low ones a more susceptible organism.

The record behind these values is article PMC8388802, “Study on the Structure-Activity Relationship of an Antimicrobial Peptide, Brevinin-2GUb, from the Skin Secretion of Hylarana guentheri” (Antibiotics, 2021).
